Measured values reported in publication PMC13266999, “Designing Antibiotics with Inherent Resistance to Efflux as a Strategy to Revive Discovery against Multidrug-Resistant Pathogens” (Journal of Medicinal Chemistry, 2026).
≈ marks a conversion by molar mass, not a printed value. Where “and” joins values, the source holds several entries; their conditions need not be identical. Equal entries are not always repeated. Where two headings read alike, the source gives them in different places.

Legend:
S. pyogenes = assay: MIC (microbroth dilution); type: cell-based, Streptococcus pyogenes; conditions: for MIC: Streptococcus pyogenes
Method: All bacteria were maintained on tryptic soy agar (TSA), except Streptococcus spp., which were maintained on Columbia agar plates containing 5% horse blood. All bacterial assays were carried out in tryptic soy broth (TSB), except for Streptococcus spp. which were grown in cation-adjusted Mueller Hinton broth containing 2.5% lysed horse blood. Bacteria were grown to stationary phase in liquid culture overnight, with shaking at 200 rpm, before being back diluted to the relevant starting concentration for each assay below. MICs were measured by the microbroth dilution method. […] Absorbance at OD600 was read on a CLARIOstar spectrophotometer (BMG Labtech) and the MIC was defined as the minimum concentration of compound where no visible growth was detected. The compounds were prepared as a DMSO stock and equivalent concentrations of DMSO had no effect on bacterial growth. MICs were also performed in the presence of the outer membrane permeator, polymyxin b nonapeptide (PMBN) following the same MIC method but with the following variation. The 2-fold dilution series of compound was prepared as above, then 50 μL of PMBN at a final concentration of 30 μg/mL was added to relevant wells, while 50 μL/well of blank media was added to the remaining wells. Bacteria were then added at 50 μL/well for a starting concentration as above. Thirty μg/mL of PMBN had no effect on bacterial growth. The MICs were read and defined as above. All animal procedures were performed by the contract research organization Pharmacology Discovery Services Taiwan in accordance with the Guide for the Care and Use of Laboratory Animals. The procedures were approved by the Institutional Ethics Committee of Pharmacology Discovery Services Taiwan, Ltd. (approval no. AB127662), in compliance with animal welfare legislation in Taiwan.

[1] = system: S. aureus SA-1199 WT and SA-1199B; assay: Accumulation assay; type: cell-based; conditions: SA-1199B compared to SA-1199
Method: Minor adjustments were made to the protocol previously described by Geddes and Hergenrother. After centrifugation in oil to remove excess compound, the pellets were dissolved in 200 μL of ultrapure sterile water and subjected to five freeze–thaw cycles. Each cycle consisted of 1 min in a dry ice and ethanol bath, followed by vortexing and 3 min in a heat block at 65 °C. Miles Misra viable counts were used to determine the number of colony-forming units (CFUs) for each replicate. These counts were performed for the 0.55 OD inoculum, postcompound incubation, solvent-only control, and lysates.
A 20 μL sample was injected into an Onyx monolithic C18 column and run using a gradient method. The mobile phase began with 10% acetonitrile and 90% water, with the acetonitrile content increased to 90% over 7 min, maintained for 2 min, and then returned to 10%. The area under the curve was automatically calculated using Agilent ChemStation software to determine the level of accumulation within the bacterial cells. Finally, the data were analyzed using GraphPad Prism 10.4.1. Unpaired t test was conducted to evaluate the statistical significance of the level of efflux in the efflux mutant S. aureus 1199B strain compared to the wild-type S. aureus 1199 strain.

[2] = Murine thigh infection model; conditions: oral 50 mg/kg at 2, 8, and 14 h postinfection, at 26 h
CB2 (h) = target: T1, CB2 (h) (Homo sapiens, UniProt P34972); assay: SafetyScreen44; conditions: agonist radioligand, specific binding, 1.0E-05 M
T1 construct: purchased Eurofins (SafetyScreen44)
T1 sequence (P34972 whole entry): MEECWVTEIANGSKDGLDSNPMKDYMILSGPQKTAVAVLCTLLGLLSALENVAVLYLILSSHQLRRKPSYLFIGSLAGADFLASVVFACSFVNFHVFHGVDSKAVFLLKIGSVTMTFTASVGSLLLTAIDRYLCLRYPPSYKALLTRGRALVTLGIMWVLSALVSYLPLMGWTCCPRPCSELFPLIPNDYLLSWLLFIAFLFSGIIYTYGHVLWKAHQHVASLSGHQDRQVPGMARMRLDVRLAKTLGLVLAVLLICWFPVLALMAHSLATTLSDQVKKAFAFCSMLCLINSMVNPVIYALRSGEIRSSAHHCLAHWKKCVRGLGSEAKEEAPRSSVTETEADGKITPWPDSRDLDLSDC
Method: (§1) Off-target pharmacology was evaluated using the Eurofins SafetyScreen44 in vitro panel. […] Binding assays were performed using radioligand displacement, and enzyme or uptake assays measured inhibition of control activity using validated detection methods (scintillation counting, fluorimetry or photometry). Responses were expressed as percent inhibition of control binding or activity. Based on Eurofins interpretation guidelines, effects ≥50% were considered significant, effects between 25% and 50% weak to moderate, and effects <25% were not considered biologically relevant.

delta (DOP) (h) = target: T2, delta (DOP) (h) (Homo sapiens, UniProt P41143); assay: SafetyScreen44; conditions: agonist radioligand, specific binding, 1.0E-05 M
T2 construct: purchased Eurofins (SafetyScreen44)
Method: as §1

5-HT2B (h) = target: T3, 5-HT2B (h) (Homo sapiens, UniProt P41595); assay: SafetyScreen44; conditions: agonist radioligand, specific binding, 1.0E-05 M
T3 construct: purchased Eurofins (SafetyScreen44)
Method: as §1

alpha 2A (h) = target: T4, alpha 2A (h) (Homo sapiens, UniProt P08913); assay: SafetyScreen44; conditions: antagonist radioligand, specific binding, 1.0E-05 M
T4 construct: purchased Eurofins (SafetyScreen44)
T4 sequence (P08913 whole entry): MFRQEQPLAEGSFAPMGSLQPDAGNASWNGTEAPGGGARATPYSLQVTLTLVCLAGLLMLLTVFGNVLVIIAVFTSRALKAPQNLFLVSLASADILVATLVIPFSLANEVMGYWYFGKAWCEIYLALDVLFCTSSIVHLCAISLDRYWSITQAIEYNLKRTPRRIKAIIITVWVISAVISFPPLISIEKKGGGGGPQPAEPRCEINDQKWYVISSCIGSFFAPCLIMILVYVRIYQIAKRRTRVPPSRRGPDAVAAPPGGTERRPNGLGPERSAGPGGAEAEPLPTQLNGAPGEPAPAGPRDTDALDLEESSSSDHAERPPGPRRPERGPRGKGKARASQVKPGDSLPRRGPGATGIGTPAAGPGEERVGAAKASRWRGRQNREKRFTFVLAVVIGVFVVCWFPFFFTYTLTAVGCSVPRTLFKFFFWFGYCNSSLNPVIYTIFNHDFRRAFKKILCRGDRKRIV
Method: as §1

MAO-A = target: T5, MAO-A (Rattus norvegicus, UniProt P21396); assay: SafetyScreen44; conditions: antagonist radioligand, specific binding, 1.0E-05 M
T5 construct: purchased Eurofins (SafetyScreen44)
Method: as §1

D1 (h) = target: T6, D1 (h) (Homo sapiens, UniProt P21728); assay: SafetyScreen44; conditions: antagonist radioligand, specific binding, 1.0E-05 M
T6 construct: purchased Eurofins (SafetyScreen44)
T6 sequence (P21728 whole entry): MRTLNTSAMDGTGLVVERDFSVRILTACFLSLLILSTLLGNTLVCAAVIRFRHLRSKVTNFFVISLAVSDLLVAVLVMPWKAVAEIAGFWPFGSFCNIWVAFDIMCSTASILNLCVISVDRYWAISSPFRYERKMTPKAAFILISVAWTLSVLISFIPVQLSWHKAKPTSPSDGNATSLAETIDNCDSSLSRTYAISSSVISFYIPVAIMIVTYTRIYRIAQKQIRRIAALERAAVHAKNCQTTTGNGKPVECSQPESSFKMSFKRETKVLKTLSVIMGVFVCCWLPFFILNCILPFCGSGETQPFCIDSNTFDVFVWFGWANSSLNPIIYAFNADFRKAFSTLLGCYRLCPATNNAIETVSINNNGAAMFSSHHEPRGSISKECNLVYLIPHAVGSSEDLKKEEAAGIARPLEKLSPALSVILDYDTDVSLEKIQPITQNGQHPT
Method: as §1

GR (h) = target: T7, GR (h) (Homo sapiens, UniProt P04150); assay: SafetyScreen44; conditions: agonist radioligand, specific binding, 1.0E-05 M
T7 construct: purchased Eurofins (SafetyScreen44)
Method: as §1

beta 1 (h) = target: T8, beta 1 (h) (Homo sapiens, UniProt P08588); assay: SafetyScreen44; conditions: agonist radioligand, specific binding, 1.0E-05 M
T8 construct: purchased Eurofins (SafetyScreen44)
T8 sequence (P08588 whole entry): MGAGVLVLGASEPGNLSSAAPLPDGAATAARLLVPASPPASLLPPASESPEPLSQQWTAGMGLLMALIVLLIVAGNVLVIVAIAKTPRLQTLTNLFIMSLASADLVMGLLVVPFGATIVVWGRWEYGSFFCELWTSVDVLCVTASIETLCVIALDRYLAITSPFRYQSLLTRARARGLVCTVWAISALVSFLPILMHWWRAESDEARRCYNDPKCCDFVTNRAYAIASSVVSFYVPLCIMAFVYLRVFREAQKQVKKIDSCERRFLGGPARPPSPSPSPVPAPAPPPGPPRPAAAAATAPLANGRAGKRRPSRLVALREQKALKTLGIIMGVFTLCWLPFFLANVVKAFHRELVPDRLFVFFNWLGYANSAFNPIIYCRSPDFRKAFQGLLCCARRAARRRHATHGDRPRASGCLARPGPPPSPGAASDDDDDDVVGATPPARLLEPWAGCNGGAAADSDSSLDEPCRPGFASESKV
Method: as §1

5-HT1B = target: T9, 5-HT1B (Rattus norvegicus, UniProt P28564); assay: SafetyScreen44; conditions: antagonist radioligand, specific binding, 1.0E-05 M
T9 construct: purchased Eurofins (SafetyScreen44)
T9 sequence (P28564 whole entry): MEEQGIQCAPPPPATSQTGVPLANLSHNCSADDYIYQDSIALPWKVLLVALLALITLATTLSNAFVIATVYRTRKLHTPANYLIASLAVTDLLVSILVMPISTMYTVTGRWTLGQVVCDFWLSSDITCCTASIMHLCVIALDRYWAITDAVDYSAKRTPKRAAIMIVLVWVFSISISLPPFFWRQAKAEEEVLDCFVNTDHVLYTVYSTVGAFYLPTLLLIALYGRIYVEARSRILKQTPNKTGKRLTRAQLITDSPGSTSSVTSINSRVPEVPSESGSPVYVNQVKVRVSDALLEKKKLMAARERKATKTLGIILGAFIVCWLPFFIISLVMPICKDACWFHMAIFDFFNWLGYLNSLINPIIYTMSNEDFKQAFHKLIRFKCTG
Method: as §1

NMDA = assay: SafetyScreen44; conditions: antagonist radioligand, specific binding, 1.0E-05 M
Method: as §1

M1 (h) = target: T10, M1 (h) (Homo sapiens, UniProt P11229); assay: SafetyScreen44; conditions: antagonist radioligand, specific binding, 1.0E-05 M
T10 construct: purchased Eurofins (SafetyScreen44)
Method: as §1

5-HT transporter (h) = target: T11, 5-HT transporter (h) (Homo sapiens, UniProt P31645); assay: SafetyScreen44; conditions: antagonist radioligand, specific binding, 1.0E-05 M
T11 construct: purchased Eurofins (SafetyScreen44)
T11 sequence (P31645 whole entry): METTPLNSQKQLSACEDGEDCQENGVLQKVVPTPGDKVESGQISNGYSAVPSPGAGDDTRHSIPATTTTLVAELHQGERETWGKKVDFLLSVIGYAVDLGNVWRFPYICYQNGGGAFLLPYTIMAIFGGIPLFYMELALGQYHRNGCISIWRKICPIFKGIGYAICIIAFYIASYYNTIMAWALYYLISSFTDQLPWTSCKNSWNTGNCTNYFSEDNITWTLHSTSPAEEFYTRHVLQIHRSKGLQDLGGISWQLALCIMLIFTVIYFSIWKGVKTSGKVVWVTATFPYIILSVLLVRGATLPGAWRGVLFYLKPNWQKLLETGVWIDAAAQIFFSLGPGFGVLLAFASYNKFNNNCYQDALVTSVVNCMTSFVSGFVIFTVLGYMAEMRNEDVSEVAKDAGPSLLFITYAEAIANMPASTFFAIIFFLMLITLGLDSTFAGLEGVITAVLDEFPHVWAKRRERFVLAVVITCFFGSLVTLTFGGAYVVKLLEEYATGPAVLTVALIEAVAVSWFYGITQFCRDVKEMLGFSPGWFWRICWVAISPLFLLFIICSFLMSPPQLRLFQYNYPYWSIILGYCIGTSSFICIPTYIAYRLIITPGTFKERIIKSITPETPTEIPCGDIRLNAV
Method: as §1

D2S (h) = target: T12, D2S (h) (Homo sapiens, UniProt P14416); assay: SafetyScreen44; conditions: agonist radioligand, specific binding, 1.0E-05 M
T12 construct: purchased Eurofins (SafetyScreen44)
T12 sequence (P14416 1-414 isoform P14416-2): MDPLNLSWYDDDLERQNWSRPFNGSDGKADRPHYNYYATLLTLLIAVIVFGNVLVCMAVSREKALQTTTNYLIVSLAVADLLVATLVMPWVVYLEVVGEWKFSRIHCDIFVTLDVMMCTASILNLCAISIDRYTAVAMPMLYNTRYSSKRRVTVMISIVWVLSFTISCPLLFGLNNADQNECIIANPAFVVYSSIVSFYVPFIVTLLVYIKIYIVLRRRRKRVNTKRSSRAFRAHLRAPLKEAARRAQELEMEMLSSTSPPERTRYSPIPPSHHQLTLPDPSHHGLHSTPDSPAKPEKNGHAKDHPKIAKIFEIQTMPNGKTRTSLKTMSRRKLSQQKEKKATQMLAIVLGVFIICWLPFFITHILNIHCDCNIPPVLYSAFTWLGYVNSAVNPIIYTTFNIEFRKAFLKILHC
Method: as §1

ETA (h) = target: T13, ETA (h) (Homo sapiens, UniProt P25101); assay: SafetyScreen44; conditions: agonist radioligand, specific binding, 1.0E-05 M
T13 construct: purchased Eurofins (SafetyScreen44)
T13 sequence (P25101 21-427): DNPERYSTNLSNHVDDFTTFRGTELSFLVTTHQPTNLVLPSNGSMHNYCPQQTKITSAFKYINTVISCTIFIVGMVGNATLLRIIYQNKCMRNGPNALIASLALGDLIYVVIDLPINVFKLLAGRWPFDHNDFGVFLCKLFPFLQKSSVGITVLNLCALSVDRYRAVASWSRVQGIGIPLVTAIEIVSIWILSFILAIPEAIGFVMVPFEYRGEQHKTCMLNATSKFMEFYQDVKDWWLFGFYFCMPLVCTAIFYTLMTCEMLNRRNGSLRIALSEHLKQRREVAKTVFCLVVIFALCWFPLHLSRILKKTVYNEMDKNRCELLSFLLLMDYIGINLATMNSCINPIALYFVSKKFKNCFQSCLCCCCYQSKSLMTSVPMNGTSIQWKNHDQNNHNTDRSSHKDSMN
Method: as §1

kappa (KOP) = target: T14, kappa (KOP) (Rattus norvegicus, UniProt P34975); assay: SafetyScreen44; conditions: agonist radioligand, specific binding, 1.0E-05 M
T14 construct: purchased Eurofins (SafetyScreen44)
T14 sequence (P34975 whole entry): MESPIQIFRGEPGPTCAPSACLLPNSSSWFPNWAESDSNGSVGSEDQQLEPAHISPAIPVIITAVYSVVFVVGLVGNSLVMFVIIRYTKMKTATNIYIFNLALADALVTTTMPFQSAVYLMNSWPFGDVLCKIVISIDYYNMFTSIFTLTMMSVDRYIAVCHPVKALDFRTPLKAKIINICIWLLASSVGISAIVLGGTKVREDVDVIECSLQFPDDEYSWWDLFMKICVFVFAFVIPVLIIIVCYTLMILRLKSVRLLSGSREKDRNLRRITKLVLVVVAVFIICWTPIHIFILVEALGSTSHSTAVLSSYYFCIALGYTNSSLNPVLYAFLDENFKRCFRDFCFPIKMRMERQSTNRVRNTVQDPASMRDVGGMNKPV
Method: as §1

Na+ channel (site 2) = assay: SafetyScreen44; conditions: antagonist radioligand, specific binding, 1.0E-05 M
Method: as §1

M3 (h) = target: T15, M3 (h) (Homo sapiens, UniProt P20309); assay: SafetyScreen44; conditions: antagonist radioligand, specific binding, 1.0E-05 M
T15 construct: purchased Eurofins (SafetyScreen44)
Method: as §1

alpha 1A (h) = target: T16, alpha 1A (h) (Homo sapiens, UniProt P35348); assay: SafetyScreen44; conditions: antagonist radioligand, specific binding, 1.0E-05 M
T16 construct: purchased Eurofins (SafetyScreen44)
T16 sequence (P35348 whole entry): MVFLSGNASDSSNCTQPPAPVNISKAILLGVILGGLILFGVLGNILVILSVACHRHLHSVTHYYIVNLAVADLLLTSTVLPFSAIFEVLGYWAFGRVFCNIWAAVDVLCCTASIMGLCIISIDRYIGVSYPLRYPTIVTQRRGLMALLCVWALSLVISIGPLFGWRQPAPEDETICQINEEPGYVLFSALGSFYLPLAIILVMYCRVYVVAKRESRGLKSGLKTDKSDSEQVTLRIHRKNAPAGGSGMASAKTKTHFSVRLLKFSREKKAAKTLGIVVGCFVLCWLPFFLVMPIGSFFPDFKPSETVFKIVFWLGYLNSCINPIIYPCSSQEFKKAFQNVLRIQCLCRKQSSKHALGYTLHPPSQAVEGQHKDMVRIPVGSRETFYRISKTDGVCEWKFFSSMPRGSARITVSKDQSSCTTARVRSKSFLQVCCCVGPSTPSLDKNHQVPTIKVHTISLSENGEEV
Method: as §1

5-HT3 (h) = target: T17, 5-HT3 (h) (Homo sapiens, UniProt P46098); assay: SafetyScreen44; conditions: antagonist radioligand, specific binding, 1.0E-05 M
T17 construct: purchased Eurofins (SafetyScreen44)
T17 sequence (P46098 24-478): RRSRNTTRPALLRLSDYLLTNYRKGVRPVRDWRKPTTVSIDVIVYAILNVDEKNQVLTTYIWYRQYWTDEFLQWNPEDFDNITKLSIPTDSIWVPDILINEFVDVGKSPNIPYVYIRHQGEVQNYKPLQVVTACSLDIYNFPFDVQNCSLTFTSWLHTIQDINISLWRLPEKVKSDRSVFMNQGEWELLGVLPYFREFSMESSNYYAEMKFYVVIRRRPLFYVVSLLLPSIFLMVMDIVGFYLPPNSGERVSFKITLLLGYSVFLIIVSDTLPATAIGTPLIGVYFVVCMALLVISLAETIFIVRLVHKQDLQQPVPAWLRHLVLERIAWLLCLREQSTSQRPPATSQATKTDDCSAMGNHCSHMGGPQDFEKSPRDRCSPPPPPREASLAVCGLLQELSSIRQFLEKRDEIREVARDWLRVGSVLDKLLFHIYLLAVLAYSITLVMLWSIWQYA
Method: as §1

## C[C@H]1COc2c(N3CC[C@@H](Nc4ncccn4)C3)c(F)cc3c(=O)c(C(=O)O)cn1c23 [Compound 46, (S)-9-Fluoro-3-methyl-7-oxo-10-((R)-3-(pyrimidin-2-ylamino)pyrrolidin-1-yl)-2,3-dihydro-7H-[1,4]oxazino[2,3,4-ij]quinoline-6-carboxylic acid]
S. pyogenes; 8198, read-out: MIC
  MIC: ≤ 0.03 µg/mL
S. pyogenes; 12048
  MIC: 0.03 to 0.125 µg/mL (≈ 0.0705 to 0.294 µM)
S. pyogenes; 13736, read-out: MIC
  MIC: 0.06 µg/mL (≈ 0.141 µM)
S. pyogenes; 13737
  MIC: 0.125 µg/mL (≈ 0.294 µM)
S. pyogenes; 13738
  MIC: 0.125 µg/mL (≈ 0.294 µM)
S. pyogenes; 80661
  MIC: 0.06 to 0.125 µg/mL (≈ 0.141 to 0.294 µM)
S. pyogenes; 81017
  MIC: 0.125 µg/mL (≈ 0.294 µM)
S. pyogenes; 82434, read-out: MIC
  MIC: 0.06 µg/mL (≈ 0.141 µM)
S. pyogenes; 82896, read-out: MIC
  MIC: 0.06 µg/mL (≈ 0.141 µM)
S. pyogenes; 83581
  MIC: 0.06 to 0.125 µg/mL (≈ 0.141 to 0.294 µM)
S. pyogenes; 84285, read-out: MIC
  MIC: 0.06 µg/mL (≈ 0.141 µM)
S. pyogenes; 86519
  MIC: 0.125 µg/mL (≈ 0.294 µM)
S. pyogenes; n = 12 isolates
  MIC range: 0.06 to 0.125 µg/mL
[1]
  level of accumulation: no significant change in accumulation
[2]
  bacterial counts in thigh: 3.19 log10 CFU/g
[2]; 50 mg/kg
  reduction relative to vehicle: 5.17 log10 CFU/g and > 4 log10 CFU/g
CB2 (h)
  % Inhibition: 0%
Delta (DOP) (h)
  inhibition at 10 µM: 2.16%
5-HT2B (h)
  % Inhibition: 5.374%
Alpha 2A (h)
  inhibition at 10 µM: 4.48%
MAO-A
  % Inhibition: -9.13%
D1 (h)
  inhibition at 10 µM: -15.4%
GR (h)
  % Inhibition: 3.456%
Beta 1 (h)
  % Inhibition: 1.921%
5-HT1B
  % Inhibition: -16.7063%
NMDA
  % Inhibition: 12.6124%
M1 (h)
  % Inhibition: 3.129%
5-HT transporter (h)
  % Inhibition: -16.9663%
D2S (h)
  inhibition at 10 µM: -7.81%
ETA (h)
  % Inhibition: -5.236%
Kappa (KOP)
  % Inhibition: 27.3513% and 27.4%
Na+ channel (site 2)
  % Inhibition: 23.6539%
M3 (h)
  % Inhibition: 2.273%
Alpha 1A (h)
  inhibition at 10 µM: 11.5%
5-HT3 (h)
  % Inhibition: -4.708%

## Cc1cc(C)nc(N[C@@H]2CCN(c3c(F)cc4c(=O)c(C(=O)O)cn5c4c3OC[C@@H]5C)C2)n1 [Compound 50, (S)-10-((R)-3-((4,6-Dimethylpyrimidin-2-yl)amino)pyrrolidin-1-yl)-9-fluoro-3-methyl-7-oxo-2,3-dihydro-7H-[1,4]oxazino[2,3,4-ij]quinoline-6-carboxylic acid]
S. pyogenes; 8198, read-out: MIC
  MIC: ≤ 0.03 µg/mL
S. pyogenes; 12048, read-out: MIC
  MIC: ≤ 0.03 µg/mL
S. pyogenes; 13736, read-out: MIC
  MIC: ≤ 0.03 µg/mL
S. pyogenes; 13737
  MIC: 0.125 µg/mL (≈ 0.276 µM)
S. pyogenes; 13738
  MIC: 0.125 µg/mL (≈ 0.276 µM)
S. pyogenes; 80661, read-out: MIC
  MIC: ≤ 0.03 µg/mL
S. pyogenes; 81017, read-out: MIC
  MIC: 0.06 µg/mL (≈ 0.132 µM)
S. pyogenes; 82434, read-out: MIC
  MIC: ≤ 0.03 µg/mL
S. pyogenes; 82896, read-out: MIC
  MIC: ≤ 0.03 µg/mL
S. pyogenes; 83581, read-out: MIC
  MIC: ≤ 0.03 µg/mL
S. pyogenes; 84285, read-out: MIC
  MIC: ≤ 0.03 µg/mL
S. pyogenes; 86519, read-out: MIC
  MIC: 0.06 µg/mL (≈ 0.132 µM)
S. pyogenes; ATCC14289, ATCC 14289
  MIC: 0.125 µg/mL (≈ 0.276 µM)
S. pyogenes; ATCC19615, ATCC 19615
  MIC: 0.125 µg/mL (≈ 0.276 µM)
S. pyogenes; n = 12 isolates, read-out: modal MIC
  MIC: ≤ 0.03 µg/mL
S. pyogenes; n = 12 isolates
  MIC range: ≤ 0.03 to 0.125 µg/mL
CB2 (h)
  inhibition at 10 µM: 0.988%
Delta (DOP) (h)
  inhibition at 10 µM: 1.77%
5-HT2B (h)
  inhibition at 10 µM: 9.78%
Alpha 2A (h)
  inhibition at 10 µM: 23.5%
MAO-A
  inhibition at 10 µM: 15%
D1 (h)
  inhibition at 10 µM: -5.66%
GR (h)
  inhibition at 10 µM: 9.19%
Beta 1 (h)
  inhibition at 10 µM: 12.5%
5-HT1B
  inhibition at 10 µM: 10.2%
NMDA
  % Inhibition: -5.137%
M1 (h)
  inhibition at 10 µM: 25.5%
5-HT transporter (h)
  inhibition at 10 µM: 2.23%
D2S (h)
  inhibition at 10 µM: -3.93%
ETA (h)
  inhibition at 10 µM: 0.266%
Kappa (KOP)
  inhibition at 10 µM: 20.1%
Na+ channel (site 2)
  % Inhibition: -10.2569%
M3 (h)
  inhibition at 10 µM: 3.56%
Alpha 1A (h)
  inhibition at 10 µM: 6.96%
5-HT3 (h)
  inhibition at 10 µM: 7.02%

## C[C@H]1COc2c(N3CCN(C)CC3)c(F)cc3c(=O)c(C(=O)O)cn1c23 [Levofloxacin, (S)-9-Fluoro-3-methyl-10-(4-methylpiperazin-1-yl)-7-oxo-2,3-dihydro-7H-[1,4]oxazino[2,3,4-ij]quinoline-6-carboxylic acid, reference compound]
[1]
  level of accumulation: lower in the NorA-overexpressing SA-1199B strain
[2]
  bacterial counts in thigh: 3.28 log10 CFU/g
